Laboratory results reported in US8778403B2, “Diketopiperazine microparticles with defined specific surface areas” (MannKind Corporation, priority 2009, dated 2014).

Test: Solubility of FDKP as a function of pH
Format: physicochemical

O=C(O)/C=C/C(=O)NCCCCC1NC(=O)C(CCCCNC(=O)/C=C/C(=O)O)NC1=O (centres unmarked) [FDKP, bis-3,6-(N-fumaryl-4-aminobutyl)-2,5-diketo-diketopiperazine]
solubility (at neutral or basic pH): readily soluble
solubility (in acid): low solubility
